{
  "source": "patent US9617279B1",
  "about": "“Imidazooxadiazole compounds” (BRISTOL-MYERS SQUIBB COMPANY, priority 2014, dated 2017)",
  "origin": "cited, not measured here",
  "key": {"[1]": {"molecular_target": "T1, protease-activated receptor type 4 (PAR4) (Homo sapiens, UniProt Q96RI0)", "T1 sequence (Q96RI0 18-385)": "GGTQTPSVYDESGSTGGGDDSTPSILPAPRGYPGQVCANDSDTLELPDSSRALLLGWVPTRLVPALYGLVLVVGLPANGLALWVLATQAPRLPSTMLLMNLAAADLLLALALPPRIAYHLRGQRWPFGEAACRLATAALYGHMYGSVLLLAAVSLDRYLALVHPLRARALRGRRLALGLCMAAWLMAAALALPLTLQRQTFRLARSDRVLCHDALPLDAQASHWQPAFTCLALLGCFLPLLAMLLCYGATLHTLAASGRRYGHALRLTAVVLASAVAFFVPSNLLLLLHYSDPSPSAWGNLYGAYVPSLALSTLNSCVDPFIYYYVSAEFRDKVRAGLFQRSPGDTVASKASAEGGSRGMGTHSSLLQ", "conditions": "abstract of Lee et al. 2001"}, "PAR1": {"molecular_target": "T2, PAR1 (Homo sapiens, UniProt P25116)", "T2 sequence (P25116 22-425)": "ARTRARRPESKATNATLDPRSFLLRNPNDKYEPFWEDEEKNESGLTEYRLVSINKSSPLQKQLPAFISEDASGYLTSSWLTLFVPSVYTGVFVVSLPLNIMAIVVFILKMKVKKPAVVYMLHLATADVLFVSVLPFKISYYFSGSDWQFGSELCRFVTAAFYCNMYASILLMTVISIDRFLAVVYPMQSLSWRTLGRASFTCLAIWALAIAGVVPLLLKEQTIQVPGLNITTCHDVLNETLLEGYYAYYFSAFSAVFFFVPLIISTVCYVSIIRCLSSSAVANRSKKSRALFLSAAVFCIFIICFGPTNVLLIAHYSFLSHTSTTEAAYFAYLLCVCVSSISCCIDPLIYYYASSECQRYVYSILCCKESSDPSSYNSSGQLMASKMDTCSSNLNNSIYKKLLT", "conditions": "ACS patients, phase III"}},
  "data": [
    {"smiles": "CCOC(=O)c1ccc(-c2nn(Cc3ccccc3)c3ccccc23)cc1", "note": "[ethyl 4-(1-benzyl-1H-indazol-3-yl)benzoate]", "values": [
      {"measurement": "inhibition of PAR4-dependent platelet activation", "setting": "[1]", "value": "selective and potent inhibitor"}
    ]},
    {"smiles": "CCOC(=O)N[C@@H]1CC[C@@H]2[C@@H](C1)C[C@H]1C(=O)O[C@H](C)[C@H]1[C@H]2/C=C/c1ccc(-c2cccc(F)c2)cn1", "note": "[vorapaxar]", "values": [
      {"measurement": "cardiovascular events", "setting": "PAR1", "value": "did not significantly reduce"},
      {"measurement": "risk of major bleeding", "setting": "PAR1", "value": "significantly increased"}
    ]}
  ]
}
